Measurements published in patent US9029337B2, “Modulation of factor 7 expression” (Isis Pharmaceuticals, Inc., priority 2007, dated 2015).
Strand notation (5' to 3'): a small letter for the sugar, then the base; units joined by * are phosphorothioate-linked, units joined directly phosphodiester-linked; [ ] holds rarer units or linkages, { } end groups; capitals alone tell only the bases. e = 2'-O-(2-methoxyethyl) (MOE); [5mC] = 5-methylcytosine; d = 2'-deoxy (DNA)

Each substance was assayed on human Factor 7 mRNA (assay: Antisense inhibition of human Factor 7 with short (14-mer) oligonucleotides in HepB3 cells, electroporation 1,000 nM). Details: electroporation, 1,000 nM antisense oligonucleotide, approximately 24 hours, Factor 7 mRNA relative to untreated control cells.
Assay type: cell-based
From the text: Short antisense oligonucleotides (shortmers) were designed to target a Factor 7 nucleic acid. The shortmers in Table 17 were designed as 2-10-2 MOE gapmers. The gapmers are 14 nucleotides in length, wherein the central gap segment is comprised of 10 2′-deoxynucleotides and is flanked on both sides (in the 5′ and 3′ directions) by wings comprising 2 nucleotides each. Each nucleotide in the 5′ wing segment and each nucleotide in the 3′ wing segment has a 2′-MOE modification. The internucleoside linkages throughout each gapmer are phosphorothioate (P═S) linkages. All cytidine residues throughout each gapmer are 5-methylcytidines.
Shortmers were evaluated for their ability to reduce human Factor 7 mRNA in HepB3 cells and compared with one 5-10-5 chimeric oligonucleotide from Table 16, ISIS 407939. HepB3 cells at a density of 20,000 cells per well in a 96-well plate were transfected using electroporation with 1,000 nM of antisense oligonucleotide. After a treatment period of approximately 24 hours, RNA was isolated from the cells and Factor 7 mRNA levels were measured by real-time RT-PCR, as described herein. Factor 7 mRNA levels were adjusted according to total RNA content as measured by RIBOGREEN®. Results are presented in Table 17 as percent inhibition of Factor 7 mRNA, relative to untreated control cells. ISIS 407939 is the first oligonucleotide in Table 17 to which the shortmers were compared, and is marked by an asterisk (*).

Row | Substance | % Inhibition [%]
1 | 435483 (antisense e[5mC]*eT*dG*dG*dG*dT*d[5mC]*dA*dT*d[5mC]*dA*dG*e[5mC]*e[5mC]) [compound 435483] | 82
2 | 435773 (antisense e[5mC]*eA*dG*dG*dG*dA*dA*d[5mC]*dA*d[5mC]*d[5mC]*d[5mC]*eT*e[5mC]) [compound 435773] | 57
3 | 435836 (antisense e[5mC]*eT*dA*dG*dG*dT*d[5mC]*dT*dG*d[5mC]*dA*dG*eG*eG) [compound 435836] | 41
4 | 435772 (antisense eG*e[5mC]*dA*dG*dT*d[5mC]*d[5mC]*d[5mC]*dT*dG*d[5mC]*dT*e[5mC]*eA) [compound 435772] | 42
5 | 435741 (antisense eA*eG*dG*dG*dT*dT*d[5mC]*dA*dT*dT*dT*d[5mC]*eA*eG) [compound 435741] | 6
6 | 435658 (antisense eT*e[5mC]*dA*d[5mC]*dT*dG*d[5mC]*dA*dG*dT*dA*d[5mC]*eT*eG) [compound 435658] | 60
7 | 435822 (antisense e[5mC]*e[5mC]*dA*dG*dG*dA*dG*d[5mC]*d[5mC]*dT*dT*dT*eA*e[5mC]) [compound 435822] | 37
8 | 435664 (antisense eT*eT*dT*dT*dT*d[5mC]*d[5mC]*dA*d[5mC]*dA*dT*dG*eG*eA) [compound 435664] | 4
9 | 435851 (antisense eA*e[5mC]*dA*dG*dG*d[5mC]*d[5mC]*dA*dG*dG*d[5mC]*dT*eG*eG) [compound 435851] | 0
10 | 435770 (antisense e[5mC]*eT*d[5mC]*dT*dG*dA*dG*dA*dG*dG*d[5mC]*d[5mC]*e[5mC]*e[5mC]) [compound 435770] | 81
11 | 435814 (antisense eT*eG*dA*d[5mC]*dG*dA*dG*dA*dG*dG*dA*d[5mC]*e[5mC]*eA) [compound 435814] | 31
12 | 435757 (antisense eT*eG*d[5mC]*d[5mC]*dT*dG*dA*dG*dT*dG*d[5mC]*d[5mC]*e[5mC]*e[5mC]) [compound 435757] | 51
13 | 435776 (antisense eG*eG*dG*dA*d[5mC]*dA*d[5mC]*dT*d[5mC]*dA*d[5mC]*dA*e[5mC]*eT) [compound 435776] | 51
14 | 435845 (antisense eG*e[5mC]*dT*d[5mC]*dA*dT*dG*dG*d[5mC]*dA*dG*dA*e[5mC]*eA) [compound 435845] | 21
15 | 435746 (antisense eA*eT*dT*dG*dA*d[5mC]*dA*dA*dG*dG*dG*d[5mC]*eT*eG) [compound 435746] | 32
16 | 435673 (antisense eA*eG*dA*d[5mC]*d[5mC]*dA*d[5mC]*d[5mC]*d[5mC]*dA*dG*dA*eT*eG) [compound 435673] | 34
17 | 435501 (antisense eT*eA*d[5mC]*dT*dG*dG*dG*dA*dG*dA*d[5mC]*d[5mC]*e[5mC]*eT) [compound 435501] | 51
18 | 435826 (antisense eA*eA*dG*dT*dG*dG*d[5mC]*dT*dG*dG*d[5mC]*dT*eG*eA) [compound 435826] | 27
19 | 435758 (antisense e[5mC]*e[5mC]*d[5mC]*dT*dG*dA*dG*d[5mC]*dT*dG*dG*dG*e[5mC]*eA) [compound 435758] | 4
20 | 435795 (antisense eA*e[5mC]*dA*d[5mC]*d[5mC]*d[5mC]*dG*dA*dG*dG*dT*dT*e[5mC]*eA) [compound 435795] | 66
21 | 435801 (antisense e[5mC]*eG*dG*dT*dT*dG*dG*d[5mC]*d[5mC]*dA*dG*dG*e[5mC]*e[5mC]) [compound 435801] | 38
22 | 435804 (antisense e[5mC]*eA*dG*dG*dG*dA*d[5mC]*dT*d[5mC]*dT*d[5mC]*dA*eG*e[5mC]) [compound 435804] | 26
23 | 435497 (antisense eG*eG*dG*dA*dG*dA*d[5mC]*d[5mC]*d[5mC]*dT*dG*dG*eT*eG) [compound 435497] | 27
24 | 435684 (antisense eA*eG*d[5mC]*dA*dG*d[5mC]*dG*d[5mC]*dG*dA*dT*dG*eT*e[5mC]) [compound 435684] | 56
25 | 435755 (antisense eG*eG*dG*dA*d[5mC]*dT*d[5mC]*dA*dG*d[5mC]*dA*dA*eG*eA) [compound 435755] | 0
26 | 435790 (antisense eA*eT*dG*dA*d[5mC]*d[5mC]*dA*dT*d[5mC]*d[5mC]*dT*d[5mC]*eA*eA) [compound 435790] | 1
27 | 435738 (antisense e[5mC]*eA*dG*dA*dG*dG*dA*dT*dG*dA*dG*d[5mC]*eA*e[5mC]) [compound 435738] | 16

Row | Substance | % Inhibition [%]
28 | 435634 (antisense eT*eG*dA*dA*dA*dT*d[5mC]*dT*d[5mC]*dT*dG*d[5mC]*eA*eG) [compound 435634] | 5
29 | 435637 (antisense eT*eG*dA*dA*dG*d[5mC]*d[5mC]*d[5mC]*dA*dA*dG*d[5mC]*eA*eG) [compound 435637] | 11
30 | 435495 (antisense eG*eA*dG*dA*d[5mC]*d[5mC]*d[5mC]*dT*dG*dG*dT*dG*eT*eA) [compound 435495] | 27
31 | 435732 (antisense eG*eA*dA*dA*dA*dG*dT*dG*dA*dG*dA*dG*e[5mC]*eT) [compound 435732] | 0
32 | 435747 (antisense eA*eT*dA*dT*d[5mC]*dA*dT*dT*dG*dA*d[5mC]*dA*eA*eG) [compound 435747] | 0
33 | 435680 (antisense eG*eT*dG*d[5mC]*dT*d[5mC]*dG*d[5mC]*dT*dG*dA*dG*eG*eT) [compound 435680] | 52
34 | 435813 (antisense eG*eG*dA*dT*dG*d[5mC]*dA*d[5mC]*dA*d[5mC]*d[5mC]*dA*eG*eG) [compound 435813] | 55
35 | 435694 (antisense e[5mC]*eT*dG*d[5mC]*dA*dG*dG*d[5mC]*dA*dG*dT*d[5mC]*e[5mC]*eT) [compound 435694] | 39
36 | 435682 (antisense eG*eG*dA*dT*dG*dA*dT*dG*dA*d[5mC]*d[5mC]*dT*eG*e[5mC]) [compound 435682] | 36
37 | 435749 (antisense e[5mC]*eA*dG*d[5mC]*d[5mC]*dA*dG*dG*dG*d[5mC]*d[5mC]*dT*eG*eG) [compound 435749] | 29
38 | 435743 (antisense eG*e[5mC]*d[5mC]*dT*d[5mC]*dA*dA*dA*d[5mC]*dA*dT*d[5mC]*eT*eA) [compound 435743] | 40
39 | 435848 (antisense eT*eG*dG*d[5mC]*d[5mC]*dA*d[5mC]*dT*dG*d[5mC]*d[5mC]*dT*e[5mC]*eA) [compound 435848] | 32
40 | 435787 (antisense eG*eA*dG*dT*dG*dT*dG*dA*dG*dG*d[5mC]*dT*eT*e[5mC]) [compound 435787] | 34
41 | 435774 (antisense eG*eT*d[5mC]*d[5mC]*d[5mC]*dA*dG*dG*dG*dA*dA*dG*eG*e[5mC]) [compound 435774] | 17
42 | 435789 (antisense e[5mC]*eA*dT*dG*dT*dT*dA*dG*d[5mC]*d[5mC]*dT*dT*eT*eG) [compound 435789] | 3
43 | 435715 (antisense e[5mC]*eA*dG*d[5mC]*d[5mC]*dA*d[5mC]*dT*d[5mC]*dG*dA*dT*eG*eT) [compound 435715] | 35
44 | 435850 (antisense e[5mC]*eT*dT*dG*dG*d[5mC]*d[5mC]*dA*dG*dT*dG*dT*eG*eG) [compound 435850] | 15
45 | 435645 (antisense eG*eG*dA*dG*d[5mC]*dT*dG*dG*dT*d[5mC]*d[5mC]*dT*eT*eG) [compound 435645] | 44
46 | 435687 (antisense eA*eT*dG*dG*dT*d[5mC]*dA*dG*dT*dG*dA*dG*eG*eA) [compound 435687] | 7
47 | 435835 (antisense eT*eT*dA*dT*dT*dT*dG*dG*dG*d[5mC]*dA*dT*eG*eG) [compound 435835] | 7
48 | 435809 (antisense e[5mC]*eT*dG*dA*d[5mC]*dA*dA*dT*dG*dT*dG*dA*eT*eG) [compound 435809] | 5
49 | 435686 (antisense e[5mC]*eA*dG*dT*dG*dA*dG*dG*dA*d[5mC]*d[5mC]*dA*e[5mC]*eG) [compound 435686] | 31
50 | 435820 (antisense e[5mC]*eA*dT*d[5mC]*d[5mC]*dT*dA*dG*dT*d[5mC]*dA*d[5mC]*eT*eG) [compound 435820] | 19
51 | 435481 (antisense eG*eG*dG*dT*d[5mC]*dA*dT*d[5mC]*dA*dG*d[5mC]*d[5mC]*eG*eG) [compound 435481] | 50
52 | 435668 (antisense eT*eG*d[5mC]*d[5mC]*dA*dT*dG*dG*dA*d[5mC]*dA*d[5mC]*eT*e[5mC]) [compound 435668] | 75
53 | 435671 (antisense eT*e[5mC]*dA*d[5mC]*d[5mC]*dA*dA*d[5mC]*dA*dA*d[5mC]*dA*eG*eG) [compound 435671] | 28
54 | 435635 (antisense e[5mC]*eA*dT*dG*dA*dT*dG*dA*dA*dA*dT*d[5mC]*eT*e[5mC]) [compound 435635] | 0
